Laboratory results reported in ChEMBL document CHEMBL4418913, “Modulation of K2P channels” (2018).
The source made the active and inactive calls. The calls are words filed in the database; no cut-off is given here.

Legend:
[1] = target: T1, Potassium channel subfamily K member 2 (Homo sapiens) (UniProt O95069); test: Activation of K2P2.1 (unknown origin) expressed in Xenopus oocytes assessed as effect on channel currents at 400 uM by two-electrode voltage clamp assay; type: cell-based
T1 sequence (whole entry): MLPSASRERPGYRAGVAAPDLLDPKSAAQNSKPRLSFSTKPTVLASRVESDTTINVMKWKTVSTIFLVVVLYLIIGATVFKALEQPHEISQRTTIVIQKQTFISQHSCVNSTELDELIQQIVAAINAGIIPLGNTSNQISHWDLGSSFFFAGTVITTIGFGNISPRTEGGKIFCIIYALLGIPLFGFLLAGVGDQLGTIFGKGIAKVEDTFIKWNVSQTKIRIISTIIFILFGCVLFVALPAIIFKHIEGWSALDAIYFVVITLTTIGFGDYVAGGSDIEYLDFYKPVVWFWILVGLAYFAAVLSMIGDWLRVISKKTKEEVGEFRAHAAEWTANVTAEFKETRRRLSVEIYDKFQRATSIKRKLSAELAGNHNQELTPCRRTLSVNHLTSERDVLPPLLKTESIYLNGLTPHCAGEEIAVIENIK

[2] = target: Potassium voltage-gated channel subfamily KQT member 2 (Homo sapiens) (UniProt O43526); test: Activation of Kv7.2 (unknown origin) expressed in Xenopus oocytes assessed as effect on channel currents by two-electrode voltage clamp assay; type: cell-based
[3] = target: T1, Potassium channel subfamily K member 2 (Homo sapiens); test: Reversible modulatory activity at K2P2.1 (unknown origin) expressed in Xenopus oocytes assessed as effect on channel currents at 100 uM at -80 mV holding potential by two-electrode voltage clamp assay; type: cell-based
[4] = target: T1, Potassium channel subfamily K member 2 (Homo sapiens); test: Activation of K2P2.1 (unknown origin) expressed in Xenopus oocytes assessed as effect on channel currents at -80 mV holding potential by two-electrode voltage clamp assay relative to untreated control; type: cell-based
[5] = target: T2, Potassium channel subfamily K member 4 (Homo sapiens) (UniProt Q9NYG8); test: Binding affinity to K2P4.1 (unknown origin) assessed as induction of protein cross linking and labelling at 1 to 200 uM following 254 nm UV light irradiation for 30 secs by SDS-PAGE analysis
T2 sequence (whole entry): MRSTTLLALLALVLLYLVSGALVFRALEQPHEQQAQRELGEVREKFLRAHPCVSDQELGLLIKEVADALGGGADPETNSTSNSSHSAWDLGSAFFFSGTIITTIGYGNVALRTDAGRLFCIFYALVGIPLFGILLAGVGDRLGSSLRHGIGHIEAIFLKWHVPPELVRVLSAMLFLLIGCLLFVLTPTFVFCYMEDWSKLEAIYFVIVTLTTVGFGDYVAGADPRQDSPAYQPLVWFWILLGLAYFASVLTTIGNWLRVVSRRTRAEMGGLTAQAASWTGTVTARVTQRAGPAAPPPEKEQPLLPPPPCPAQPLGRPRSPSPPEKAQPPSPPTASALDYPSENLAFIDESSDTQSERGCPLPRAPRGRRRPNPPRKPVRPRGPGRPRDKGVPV

[6] = target: T1, Potassium channel subfamily K member 2 (Homo sapiens); test: Reversible activation of K2P2.1 (unknown origin) expressed in HEK293T cells assessed as effect on channel currents at 10 uM at -80 mV holding potential by whole cell patch clamp assay relative to untreated control; type: cell-based
[7] = system: Potassium channel subfamily K member 2 (Homo sapiens), O95069 [UNDEFINED MUTATION]; test: Activation of K2P2.1 G137I mutant (unknown origin) expressed in Xenopus oocytes assessed as effect on channel currents at 50 uM by two-electrode voltage clamp assay; type: cell-based
[8] = target: T1, Potassium channel subfamily K member 2 (Homo sapiens); test: Activation of K2P2.1 (unknown origin) expressed in HEK293T cells outside out excised patches assessed as effect on channel currents at 20 uM at -40 mV holding potential by […] patch clamp assay relative to untreated control; type: cell-based
[9] = target: T1, Potassium channel subfamily K member 2 (Homo sapiens); test: Reversible activation of K2P2.1 (unknown origin) expressed in HEK293T cells assessed as effect on channel currents at 5 to 20 uM by […] assay; type: cell-based
[10] = system: Potassium channel subfamily K member 2 (Homo sapiens), O95069 [UNDEFINED MUTATION]; test: Activation of K2P2.1 W275S mutant (unknown origin) expressed in Xenopus oocytes assessed as effect on channel currents at 50 uM by two-electrode voltage clamp assay; type: cell-based
[11] = target: T1, Potassium channel subfamily K member 2 (Homo sapiens); test: Activation of K2P2.1 (unknown origin) expressed in HEK293T cells inside out excised patches assessed as effect on channel currents at 20 uM at -40 mV holding potential by patch clamp assay relative to untreated control; type: cell-based
[12] = target: T1, Potassium channel subfamily K member 2 (Homo sapiens); test: Reversible activation of K2P2.1 (unknown origin) expressed in Xenopus oocytes assessed as effect on channel currents at 50 uM at -80 mV holding potential by two-electrode voltage clamp assay; type: cell-based
[13] = species on record: Homo sapiens; test: Activation of K2P2.1 triple Glycine mutant (unknown origin) expressed in Xenopus oocytes assessed as effect on channel currents at 50 uM by two-electrode voltage clamp assay; type: cell-based
[14] = target: T1, Potassium channel subfamily K member 2 (Homo sapiens); test: Activation of K2P2.1 (unknown origin) expressed in Xenopus oocytes assessed as effect on channel currents at 50 uM in presence of 90 mM [K+]o-induced extracellular C-type gate stabilization by two-electrode voltage clamp assay; type: cell-based
[15] = target: T1, Potassium channel subfamily K member 2 (Homo sapiens); test: Inhibition of K2P2.1 (unknown origin) expressed in Xenopus oocytes assessed as effect on channel currents at 100 to 500 uM at 40 mV holding potential by two-electrode voltage clamp assay; type: cell-based

Potassium voltage-gated channel subfamily KQT member 2 (Homo sapiens), sequence (O43526 whole entry): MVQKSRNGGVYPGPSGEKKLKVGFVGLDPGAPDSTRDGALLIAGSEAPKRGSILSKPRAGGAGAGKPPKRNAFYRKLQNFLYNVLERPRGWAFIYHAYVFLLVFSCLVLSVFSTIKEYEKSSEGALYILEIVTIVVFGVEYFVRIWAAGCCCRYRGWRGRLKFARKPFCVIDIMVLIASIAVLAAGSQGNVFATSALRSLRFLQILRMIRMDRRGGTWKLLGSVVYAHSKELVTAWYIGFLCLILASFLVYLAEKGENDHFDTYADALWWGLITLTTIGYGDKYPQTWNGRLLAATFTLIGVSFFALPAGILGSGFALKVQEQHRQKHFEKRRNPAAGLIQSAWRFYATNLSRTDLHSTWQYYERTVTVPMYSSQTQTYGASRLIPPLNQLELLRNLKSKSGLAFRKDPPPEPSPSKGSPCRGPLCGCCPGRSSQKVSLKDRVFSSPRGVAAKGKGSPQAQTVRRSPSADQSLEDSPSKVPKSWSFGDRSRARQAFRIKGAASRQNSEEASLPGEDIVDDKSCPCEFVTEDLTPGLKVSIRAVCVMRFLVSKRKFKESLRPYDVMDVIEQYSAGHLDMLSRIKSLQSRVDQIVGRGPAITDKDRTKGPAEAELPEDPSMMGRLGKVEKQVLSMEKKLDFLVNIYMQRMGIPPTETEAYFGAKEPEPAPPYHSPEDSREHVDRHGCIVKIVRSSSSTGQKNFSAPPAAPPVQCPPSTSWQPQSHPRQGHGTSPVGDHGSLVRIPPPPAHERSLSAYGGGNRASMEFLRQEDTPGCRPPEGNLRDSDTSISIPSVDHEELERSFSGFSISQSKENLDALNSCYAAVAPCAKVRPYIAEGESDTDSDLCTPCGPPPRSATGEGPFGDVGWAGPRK

Compound: O=C(O)COc1ccc(C23CC4CC(CC(C4)C2)C3)cc1
- Activity [1]: Active

Compound: O=C1S/C(=C/c2ccc(F)cc2)C(=O)N1CN1CCCCC1
- Activity [1]: Active

Compound: O=C(O)CCn1c2ccc(Cl)cc2c2cc(Cl)ccc21
- Activity [1]: Active
- Activity [2]: inactive
- Activity [3]: Active
- Emax [4]: 11

Compound: Cc1cccc(-n2ncc3c(NCCc4ccccc4)ncnc32)c1
- Activity [3]: Active

Compound: C#Cc1ccc(S(=O)(=O)NC(=O)CCN2c3ccc(N=[N+]=[N-])cc3C3(CCCCC3)c3cc(N=[N+]=[N-])ccc32)cc1
- Activity [5]: Active

Compound: CC1(C)c2cc(Cl)ccc2N(CCc2nnn[nH]2)c2ccc(Cl)cc21
- Activity [6]: Active
- Activity [7]: inactive
- Activity [8]: Active
- Activity [9]: Active
- Activity [10]: inactive
- Activity [11]: Active
- Activity [12]: Active
- Activity [13]: inactive
- Activity [14]: inactive

Compound: Cc1sc(-n2cccc2)c(C(=O)NCc2ccc(Cl)cc2)c1C
- inhibition [15]: Active
